Assay results: patent US6479517B1, “Phosphorous-containing benzothiophenes” (Eli Lilly and Company, priority 1995, dated 2002)
pIC50: −log10 of the molar value.

Tests used:
ovariectomized rats [1] = experiment: Serum cholesterol in ovariectomized rat post-menopausal model; format: in vivo; settings: OVX Sprague Dawley rats, oral, daily for 4 days
Method: (§1) In the examples illustrating the methods, a post-menopausal model was used in which effects of different treatments upon circulating lipids were determined.
(§2) Seventy-five day old female Sprague Dawley rats (weight range of 200 to 225g) were obtained from Charles River Laboratories (Portage, Mich.). The animals were either bilaterally ovariectomized (OVX) or exposed to a Sham surgical procedure at Charles River Laboratories, and then shipped after one week. Upon arrival, they were housed in metal hanging cages in groups of 3 or 4 per cage and had ad libitum access to food (calcium content approximately 0.5%) and water for one week. Room temperature was maintained at 22.20°±1.7° C. with a minimum relative humidity of 40%. The photoperiod in the room was 12 hours light and 12 hours dark.
(§3) Dosing Regimen Tissue Collection. After a one week acclimation period (therefore, two weeks post-OVX) daily dosing with test compound was initiated. 17α-ethynyl estradiol or the test compound were given orally, unless otherwise stated, as a suspension in 1% carboxymethylcellulose or dissolved in 20% cyclodextrin. Animals were dosed daily for 4 days. Following the dosing regimen, animals were weighed and anesthetized with a ketamine: xylazine (2:1, V:V) mixture and a blood sample was collected by cardiac puncture. The animals were then sacrificed by asphyxiation with CO2, the uterus was removed through a midline incision, and a wet uterine weight was determined.
Cholesterol Analysis. Blood samples were allowed to clot at room temperature for 2 hours, and serum was obtained following centrifugation for 10 minutes at 3000 rpm. Serum cholesterol was determined using a Boehringer Mannheim Diagnostics high performance cholesterol assay. Briefly the cholesterol was oxidized to cholest-4-en-3-one and hydrogen peroxide. The hydrogen peroxide was then reacted with phenol and 4-aminophenazone in the presence of peroxidase to produce a p-quinone imine dye, which was read spectrophotemetrically at 500 nm. Cholesterol concentration was then calculated against a standard curve. The entire assay was automated using a Biomek Automated Workstation.

ovariectomized rats [2] = experiment: Uterine weight in ovariectomized rat post-menopausal model (4-day dosing); format: in vivo; settings: for Uterine Weight (% increase vs. OVX): OVX Sprague Dawley rats, oral, daily for 4 days
Method: as §1, §2, §3

[3] = tested on: Uterine Eosinophil Peroxidase (EPO); experiment: Uterine Eosinophil Peroxidase (EPO) Assay; format: in vivo, rat; settings: stromal layer of ovariectomized rats
[4] = tested on: Uterine Eosinophil Peroxidase (EPO); experiment: Uterine Eosinophil Peroxidase (EPO) Assay; format: in vivo, rat
Description: as §2, §3
Uterine Eosinophil Peroxidase (EPO) Assay. Uteri were kept at 4° C. until time of enzymatic analysis. The uteri were then homogenized in 50 volumes of 50 mM Tris buffer (pH—8.0) containing 0.005% Triton X-100. Upon addition of 0.01% hydrogen peroxide and 10 mM O-phenylenediamine (final concentrations) in Tris buffer, increase in absorbance was monitored for one minute at 450 nm. The presence of eosonophils in the uterus is an indication of estrogenic activity of a compound. The maximal velocity of a 15 second interval was determined over the initial, linear portion of the reaction curve.

[5] = tested on: MCF-7 breast adenocarcinoma cells; experiment: MCF-7 Proliferation Assay; format: cell-based; settings: Homo sapiens, MCF7; MCF-7 cells, 48 hours with drug, 4 hours thymidine pulse; read-out: IC50 (MCF-7 proliferation, tritiated thymidine)
Method: MCF-7 breast adenocarcinoma cells (ATCC HTB 22) were maintained in MEM (minimal essential medium, phenol red-free, Sigma, St. Louis, Mo.) supplimented with 10% fetal bovine serum (FBS) (V/V), L-glutamine (2 mM), sodium pyruvate (1 mM), HEPES {(N-[2-hydroxyethyl]piperazine-N′-[2-ethanesulfonic acid]10 mM}, non-essential amino acids and bovine insulin (1 ug/mL) (maintenance medium). Ten days prior to assay, MCF-7 cells were switched to maintenance medium supplemented with 10% dextran coated charcoal stripped fetal bovine serum (DCC-FBS) assay medium) in place of 10% FBS to deplete internal stores of steroids. MCF-7 cells were removed from maintenance flasks using cell dissociation medium (Ca++/Mg++ free HBSS (phenol red-free) supplemented with 10 mM HEPES and 2 mM EDTA). Cells were washed twice with assay medium and adjusted to 80,000 cells/ML. Approximately 100 μL (8,000 cells) were added to flat-bottom microculture wells (Costar 3596) and incubated at 37° C. in a 5% CO2 humidified incubator for 48 hours to allow for cell adherence and equilibration after transfer. Serial dilutions of drugs or DMSO as a diluent control were prepared in assay medium and 50 μL transferred to triplicate microcultures followed by 50 μL assay medium for a final volume of 200 μL. After an additional 48 hours at 37° C. in a 5% CO2 humidified incubator, microcultures were pulsed with tritiated thymidine (1 uCi/well) for 4 hours. Cultures were terminated by freezing at −70° C. for 24 hours followed by thawing and harvesting of microcultures using a Skatron Semiautomatic Cell Harvester. Samples were counted by liquid scintillation using a Wallac BetaPlace β counter. Results in Table 2 below show the ED50 for certain compounds of the present invention.

[6] = OVX Sprague Dawley rats, oral, daily for 4 days, dose 0.1 mg/kg
[7] = OVX Sprague Dawley rats, oral, daily for 4 days, dose 0.01 mg/kg
[8] = OVX Sprague Dawley rats, oral, daily for 4 days, dose 1.0 mg/kg

| Structure (SMILES) | Serum Cholesterol (% decrease vs. OVX) (ovariectomized rats [1]; dose 0.1 mg/kg) [%] | Uterine Weight (% increase vs. OVX) (ovariectomized rats [2]; dose 0.1 mg/kg) [%] | Effect on uterine weight (in words) (ovariectomized rats [2]; compared to ovariectomized test animals, EE2 orally at 0.1 mg/kg/day) | Eosinophil infiltration into the uterus (in words) [3] | Uterine EPO (V. max) [4, 6] | Serum Cholesterol (% decrease vs. OVX) (ovariectomized rats [1]; dose 0.01 mg/kg) [%] | Serum Cholesterol (% decrease vs. OVX) (ovariectomized rats [1]; dose 1.0 mg/kg) [%] | Uterine EPO (V. max) ([4]; rat, in vivo, po, 0.01 mg/kg) | Uterine EPO (V. max) ([4]; rat, in vivo, po, 0.1 mg/kg) | Uterine EPO (V. max) ([4]; rat, in vivo, po, 1 mg/kg) | Uterine Weight (% increase vs. OVX) (ovariectomized rats [2]; dose 0.01 mg/kg) [%] | Uterine Weight (% increase vs. OVX) (ovariectomized rats [2]; dose 1.0 mg/kg) [%] | pIC50 [5] | Uterine EPO (V. max) [4, 7] | Uterine EPO (V. max) [4, 8] |
| --- | --- | --- | --- | --- | --- | --- | --- | --- | --- | --- | --- | --- | --- | --- | --- |
| C#C[C@]1(O)CC[C@H]2[C@@H]3CCc4cc(O)ccc4[C@H]3CC[C@@]21C [EE2, 17α-ethynyl estradiol, reference compound] | 85.9 | 171.5 | substantially greater than the uterine weight of ovariectomized test animals | substantial, expected increase in eosinophil infiltration | 109.3 | – | – | – | – | – | – | – | – | – | – |
| Cl.O=C(c1ccc(OCCN2CCCCC2)cc1)c1c(-c2ccc(O)cc2)sc2cc(O)ccc12 [Raloxifene, 6-hydroxy-2-(4-hydroxyphenyl)-3-[4-(2-piperidinoethoxy)benzoyl]benzo[b]thiophene, hydrochloride, reference compound] | 75.6 | – | – | – | – | 65 | 71.1 | 2.2 | 4.3 | 3.9 | – | – | – | – | – |
| CCOP(=O)(OCC)Oc1ccc(-c2sc3cc(OP(=O)(OCC)OCC)ccc3c2C(=O)c2ccc(OCCN3CCCCC3)cc2)cc1.Cl [Example 1] | 41.1 | 25.2 | – | – | 6.5 | 24.3 | 17.4 | – | – | – | 51.5 | 37.0 | 9.00 | 0.68 | 5.8 |
| Cl.O=C(c1ccc(OCCN2CCCCC2)cc1)c1c(-c2ccc(OP(=O)(c3ccccc3)c3ccccc3)cc2)sc2cc(OP(=O)(c3ccccc3)c3ccccc3)ccc12 [Example 3] | 37.6 | 47.1 | – | – | 7 | −25 | 57.5 | – | – | – | 22.5 | 24.7 | 9.00 | 3.7 | 6.7 |
| Cl.O=C(c1ccc(OCCN2CCCCC2)cc1)c1c(-c2ccc(OP(=O)(Oc3ccccc3)Oc3ccccc3)cc2)sc2cc(OP(=O)(Oc3ccccc3)Oc3ccccc3)ccc12 [Example 2] | 15.6 | 12.4 | – | – | 9.8 | −48.2 | 55.2 | – | – | – | 17.4 | 31.4 | 8.00 | 4 | 5.6 |
